Assay results: patent US20220054513A1, “COMBINATION COMPOSITIONS COMPRISING A BETA-LACTAMASE INHIBITOR” (VenatoRx Pharmaceuticals, Inc., priority 2018, published 2022)
Like-named read-outs stand apart in the source and are kept apart here.

How the values were obtained:
[1] = system: Acinetobacter baumannii-calcoaceticus species complex clinical isolates; assay: MIC of triple combinations (Compound 1, sulbactam, meropenem or cefepime), 141 clinical isolates; assay type: cell-based; conditions: Cmpd 1 at 4 μg/mL in combinations
Description: For a more comprehensive assessment of the ability of test compounds to potentiate sulbactam in triple combinations with β-lactams additional MIC assays were utilized.

[2] = system: multi-drug resistant Acinetobacter baumannii; assay: broth microdilution MIC of sulbactam, ampicillin, cefepime and combinations +/- Compound 1, panel of 51 Acinetobacter isolates

CC1(C)[C@H](C(=O)O)N2C(=O)C[C@H]2S1(=O)=O [SUL, Sulbactam]
64 µg/mL: MIC ([1]; Acinetobacter, strain 1035794) | MIC ([1]; Acinetobacter, strain 1036023) | MIC ([1]; Acinetobacter, strain 1036921) | MIC ([1]; Acinetobacter, strain 1037211) | MIC ([1]; Acinetobacter, strain 1037294) | MIC ([1]; Acinetobacter, strain 1037618) | MIC ([1]; Acinetobacter, strain 1039502) | MIC ([1]; Acinetobacter, strain 1040901) | MIC90 [2] | MIC ([2]; read-out: Minimum inhibitory concentration (MIC), strain 0274 (TEM-1D, ADC-25, OXA-66, OXA-72)) | MIC ([2]; read-out: Minimum inhibitory concentration (MIC), strain 0275 (TEM-1D, ADC-25, OXA-23, OXA-66)) | MIC ([2]; read-out: Minimum inhibitory concentration (MIC), strain 0287 (ADC-25, OXA-66, OXA-72)) | MIC ([2]; read-out: Minimum inhibitory concentration (MIC), strain 0296 (ADC-25, OXA-23, OXA-223)) | MIC ([2]; read-out: Minimum inhibitory concentration (MIC), strain 0306 (TEM-1B, OXA-65, OXA-24))
4 µg/mL: MIC ([2]; read-out: Minimum inhibitory concentration (MIC), strain 0307 (ADC-25, OXA-66, OXA-237)) | MIC ([2]; read-out: Minimum inhibitory concentration (MIC), strain 0312 (OXA-69)) | MIC ([2]; read-out: Minimum inhibitory concentration (MIC), strain 157876 (enzyme content ND)) | MIC ([2]; read-out: Minimum inhibitory concentration (MIC), strain 161752 (enzyme content ND)) | MIC ([2]; read-out: Minimum inhibitory concentration (MIC), strain 161755 (enzyme content ND)) | MIC ([2]; read-out: Minimum inhibitory concentration (MIC), strain 161762 (enzyme content ND))
16 µg/mL: MIC ([1]; Acinetobacter, strain 1037193) | MIC ([1]; Acinetobacter, strain 1037256) | MIC ([1]; Acinetobacter, strain 1037462) | MIC ([1]; Acinetobacter, strain 1037731) | MIC ([1]; Acinetobacter, strain 1037732) | MIC ([1]; Acinetobacter, strain 1037738) | MIC ([1]; Acinetobacter, strain 1038418) | MIC ([1]; Acinetobacter, strain 1038439) | MIC ([1]; Acinetobacter, strain 1039514) | MIC ([1]; Acinetobacter, strain 1039518) | MIC ([1]; Acinetobacter, strain 1042182) | MIC50 [2] | MIC ([2]; read-out: Minimum inhibitory concentration (MIC), strain 0283 (TEM-1D, ADC-25, OXA-23, OXA-66)) | MIC ([2]; read-out: Minimum inhibitory concentration (MIC), strain 0285 (TEM-1B, OXA-65, OXA-24)) | MIC ([2]; read-out: Minimum inhibitory concentration (MIC), strain 0286 (ADC-25, OXA-66, OXA-24)) | MIC ([2]; read-out: Minimum inhibitory concentration (MIC), strain 0289 (ADC-25, OXA-66, OXA-72)) | MIC ([2]; read-out: Minimum inhibitory concentration (MIC), strain 0291 (TEM-1D, ADC-25, OXA-23, OXA-66)) | MIC ([2]; read-out: Minimum inhibitory concentration (MIC), strain 0293 (OXA-66, OXA-72)) | MIC ([2]; read-out: Minimum inhibitory concentration (MIC), strain 0294 (TEM-1B, OXA-23, OXA-65)) | MIC ([2]; read-out: Minimum inhibitory concentration (MIC), strain 0301 (ADC-25, OXA-66, OXA-72)) | MIC ([2]; read-out: Minimum inhibitory concentration (MIC), strain 0311 (ADC-25, OXA-23, OXA-82)) | MIC ([2]; read-out: Minimum inhibitory concentration (MIC), strain 157901 (enzyme content ND)) | MIC ([2]; read-out: Minimum inhibitory concentration (MIC), strain 161760 (enzyme content ND))
8 µg/mL: MIC ([1]; Acinetobacter, strain 1037714) | MIC ([1]; Acinetobacter, strain 1040900) | MIC ([2]; read-out: Minimum inhibitory concentration (MIC), strain 0276 (enzyme content ND)) | MIC ([2]; read-out: Minimum inhibitory concentration (MIC), strain 0297 (ADC-25, OXA-23, OXA-66)) | MIC ([2]; read-out: Minimum inhibitory concentration (MIC), strain 0303 (ADC-25, OXA-23, OXA-66)) | MIC ([2]; read-out: Minimum inhibitory concentration (MIC), strain 0304 (ADC-25, OXA-66, OXA-72)) | MIC ([2]; read-out: Minimum inhibitory concentration (MIC), strain 0305 (TEM-1B, OXA-65, OXA-24)) | MIC ([2]; read-out: Minimum inhibitory concentration (MIC), strain 0309 (OXA-23, OXA-82)) | MIC ([2]; read-out: Minimum inhibitory concentration (MIC), strain 161750 (enzyme content ND))
32 µg/mL: MIC ([1]; Acinetobacter, strain 1035788) | MIC ([1]; Acinetobacter, strain 1035808) | MIC ([1]; Acinetobacter, strain 1035825) | MIC ([1]; Acinetobacter, strain 1035900) | MIC ([1]; Acinetobacter, strain 1036045) | MIC ([1]; Acinetobacter, strain 1036068) | MIC ([1]; Acinetobacter, strain 1036734) | MIC ([1]; Acinetobacter, strain 1036768) | MIC ([1]; Acinetobacter, strain 1036781) | MIC ([1]; Acinetobacter, strain 1036859) | MIC ([1]; Acinetobacter, strain 1036882) | MIC ([1]; Acinetobacter, strain 1037251) | MIC ([1]; Acinetobacter, strain 1037593) | MIC ([1]; Acinetobacter, strain 1037747) | MIC ([1]; Acinetobacter, strain 1039515) | MIC ([1]; Acinetobacter, strain 1040916) | MIC ([2]; read-out: Minimum inhibitory concentration (MIC), strain 0273 (ADC-25, OXA-23, OXA-66)) | MIC ([2]; read-out: Minimum inhibitory concentration (MIC), strain 0277 (TEM-1B, OXA-65, OXA-24)) | MIC ([2]; read-out: Minimum inhibitory concentration (MIC), strain 0278 (TEM-1D, ADC-25, OXA-23, OXA-66)) | MIC ([2]; read-out: Minimum inhibitory concentration (MIC), strain 0279 (TEM-1D, ADC-25, OXA-23, OXA-66)) | MIC ([2]; read-out: Minimum inhibitory concentration (MIC), strain 0281 (TEM-1D, ADC-25, OXA-82)) | MIC ([2]; read-out: Minimum inhibitory concentration (MIC), strain 0282 (TEM-1D, ADC-25, OXA-23, OXA-66)) | MIC ([2]; read-out: Minimum inhibitory concentration (MIC), strain 0284 (TEM-1B, OXA-65, OXA-24)) | MIC ([2]; read-out: Minimum inhibitory concentration (MIC), strain 0288 (ADC-25, OXA-23, OXA-66)) | MIC ([2]; read-out: Minimum inhibitory concentration (MIC), strain 0290 (TEM-1D, ADC-25, OXA-23, OXA-66)) | MIC ([2]; read-out: Minimum inhibitory concentration (MIC), strain 0292 (OXA-66, OXA-72)) | MIC ([2]; read-out: Minimum inhibitory concentration (MIC), strain 0295 (TEM-1D, ADC-25, OXA-23, OXA-66)) | MIC ([2]; read-out: Minimum inhibitory concentration (MIC), strain 0298 (TEM-1D, ADC-25, OXA-66, OXA-237)) | MIC ([2]; read-out: Minimum inhibitory concentration (MIC), strain 0299 (PER-7, OXA-23, OXA-203)) | MIC ([2]; read-out: Minimum inhibitory concentration (MIC), strain 0302 (OXA-23, OXA-82)) | MIC ([2]; read-out: Minimum inhibitory concentration (MIC), strain 0308 (TEM-1D, ADC-25, OXA-71)) | MIC ([2]; read-out: Minimum inhibitory concentration (MIC), strain 0310 (OXA-23, OXA-82)) | MIC ([2]; read-out: Minimum inhibitory concentration (MIC), strain 0313 (TEM-1D, OXA-23, OXA-69))
128 µg/mL: MIC ([1]; strain 1002960) | MIC ([1]; strain 1010331) | MIC ([1]; strain 1010950) | MIC ([1]; strain 1019086) | MIC ([1]; strain 1023031) | MIC ([1]; strain 1037479) | MIC ([1]; strain 1040917) | MIC ([2]; read-out: Minimum inhibitory concentration (MIC), strain 0280 (TEM-1D, ADC-25, OXA-66))
2 µg/mL: MIC ([2]; read-out: Minimum inhibitory concentration (MIC), strain 0300 (ADC-25, OXA-66)) | MIC ([2]; read-out: Minimum inhibitory concentration (MIC), strain 157834 (enzyme content ND)) | MIC ([2]; read-out: Minimum inhibitory concentration (MIC), strain 157842 (enzyme content ND)) | MIC ([2]; read-out: Minimum inhibitory concentration (MIC), strain 161756 (enzyme content ND))
